# pIC50: −log10 of the molar value. Marks after values point to notes of the source that are not given here.
# Experiment: In vitro cytotoxicity in different cell lines using the CellTiter-Blue Cell Viability Assay
# Assay type: cell-based, human
# Conditions: Homo sapiens, 96 h, read-out: Geomean IC50
row,Structure (SMILES),pIC50
1,COc1cc2cc(c1Cl)N(C)C(=O)C[C@H](OC(=O)CSc1ccc(C(C)=O)cc1Cl)[C@]1(C)O[C@H]1[C@H](C)[C@@H]1C[C@@](O)(NC(=O)O1)[C@H](OC)/C=C/C=C(\C)C2 [Compound 15],9.74
2,COc1cc2cc(c1Cl)N(C)C(=O)C[C@H](OC(=O)CNC(=O)c1ccc(C(C)=O)cc1)[C@]1(C)O[C@H]1[C@H](C)[C@@H]1C[C@@](O)(NC(=O)O1)[C@H](OC)/C=C/C=C(\C)C2 [Compound 21],8.78
3,COc1cc2cc(c1Cl)N(C)C(=O)C[C@H](OC(=O)CCc1ccc(C(C)=O)cc1)[C@]1(C)O[C@H]1[C@H](C)[C@@H]1C[C@@](O)(NC(=O)O1)[C@H](OC)/C=C/C=C(\C)C2 [Compound 9],9.72
4,COc1cc2cc(c1Cl)N(C)C(=O)C[C@H](OC(=O)Cc1ccc(C(C)=O)cc1[N+](=O)[O-])[C@]1(C)O[C@H]1[C@H](C)[C@@H]1C[C@@](O)(NC(=O)O1)[C@H](OC)/C=C/C=C(\C)C2 [Compound 6],8.67
5,COc1cc2cc(c1Cl)N(C)C(=O)C[C@H](OC(=O)C1CCCN1C(=O)c1ccc(C(C)=O)cc1)[C@]1(C)O[C@H]1[C@H](C)[C@@H]1C[C@@](O)(NC(=O)O1)[C@H](OC)/C=C/C=C(\C)C2 (stereo partly shown) [Compound 20],9.03
6,COc1cc(C(C)=O)ccc1SCC(=O)O[C@H]1CC(=O)N(C)c2cc(cc(OC)c2Cl)C/C(C)=C/C=C/[C@@H](OC)[C@@]2(O)C[C@H](OC(=O)N2)[C@@H](C)[C@@H]2O[C@@]12C [Compound 17],9.35
7,COc1cc2cc(c1Cl)N(C)C(=O)C[C@H](OC(=O)CSc1ccc(C(C)=O)cc1C)[C@]1(C)O[C@H]1[C@H](C)[C@@H]1C[C@@](O)(NC(=O)O1)[C@H](OC)/C=C/C=C(\C)C2 [Compound 12],9.12
8,COc1cc2cc(c1Cl)N(C)C(=O)C[C@H](OC(=O)[C@H](C)N(C)C(=O)CCC(C)=O)[C@]1(C)O[C@H]1[C@H](C)[C@@H]1C[C@@](O)(NC(=O)O1)[C@H](OC)/C=C/C=C(\C)C2 [Compound 44],8.14
9,COc1cc2cc(c1Cl)N(C)C(=O)C[C@H](OC(=O)CSc1ccc(C(C)=O)cc1[N+](=O)[O-])[C@]1(C)O[C@H]1[C@H](C)[C@@H]1C[C@@](O)(NC(=O)O1)[C@H](OC)/C=C/C=C(\C)C2 [Compound 14],8.81
10,COc1cc2cc(c1Cl)N(C)C(=O)C[C@H](OC(=O)CN(C)c1ccc(C(C)=O)cc1)[C@]1(C)O[C@H]1[C@H](C)[C@@H]1C[C@@](O)(NC(=O)O1)[C@H](OC)/C=C/C=C(\C)C2 [Compound 10],9.52
11,COc1cc2cc(c1Cl)N(C)C(=O)C[C@H](OC(=O)CCCc1ccc(C(C)=O)cc1)[C@]1(C)O[C@H]1[C@H](C)[C@@H]1C[C@@](O)(NC(=O)O1)[C@H](OC)/C=C/C=C(\C)C2 [Compound 8],10.00
12,COc1cc2cc(c1Cl)N(C)C(=O)C[C@H](OC(=O)Nc1ccc(C(C)=O)cc1)[C@]1(C)O[C@H]1[C@H](C)[C@@H]1C[C@@](O)(NC(=O)O1)[C@H](OC)/C=C/C=C(\C)C2 [Compound 28],7.97
13,CCN(CC(=O)O[C@H]1CC(=O)N(C)c2cc(cc(OC)c2Cl)C/C(C)=C/C=C/[C@@H](OC)[C@@]2(O)C[C@H](OC(=O)N2)[C@@H](C)[C@@H]2O[C@@]12C)C(=O)c1ccc(C(C)=O)cc1 [Compound 22],7.60
14,COc1cc2cc(c1Cl)N(C)C(=O)C[C@H](OC(=O)COc1ccc(C(C)=O)cc1)[C@]1(C)O[C@H]1[C@H](C)[C@@H]1C[C@@](O)(NC(=O)O1)[C@H](OC)/C=C/C=C(\C)C2 [Compound 18],9.89
15,COc1cc2cc(c1Cl)N(C)C(=O)C[C@H](OC(=O)Cc1ccc(C(C)=O)c(F)c1)[C@]1(C)O[C@H]1[C@H](C)[C@@H]1C[C@@](O)(NC(=O)O1)[C@H](OC)/C=C/C=C(\C)C2 [Compound 5],9.05
16,COc1cc2cc(c1Cl)N(C)C(=O)C[C@H](OC(=O)CSc1ccc(C(C)=O)cc1C(F)(F)F)[C@]1(C)O[C@H]1[C@H](C)[C@@H]1C[C@@](O)(NC(=O)O1)[C@H](OC)/C=C/C=C(\C)C2 [Compound 13],9.06
17,COc1cc2cc(c1Cl)N(C)C(=O)C[C@H](OC(=O)Cc1ccc(C(C)=O)c([N+](=O)[O-])c1)[C@]1(C)O[C@H]1[C@H](C)[C@@H]1C[C@@](O)(NC(=O)O1)[C@H](OC)/C=C/C=C(\C)C2 [Compound 7],9.05
18,COc1cc2cc(c1Cl)N(C)C(=O)C[C@H](OC(=O)CCNC(=O)c1ccc(C(C)=O)cc1)[C@]1(C)O[C@H]1[C@H](C)[C@@H]1C[C@@](O)(NC(=O)O1)[C@H](OC)/C=C/C=C(\C)C2 [Compound 27],7.93
19,COc1cc2cc(c1Cl)N(C)C(=O)C[C@H](OC(=O)CSc1ccc(C(C)=O)cc1)[C@]1(C)O[C@H]1[C@H](C)[C@@H]1C[C@@](O)(NC(=O)O1)[C@H](OC)/C=C/C=C(\C)C2 [Compound 11],9.68
20,COc1cc2cc(c1Cl)N(C)C(=O)C[C@H](OC(=O)CSc1ccc(C(C)=O)cc1Br)[C@]1(C)O[C@H]1[C@H](C)[C@@H]1C[C@@](O)(NC(=O)O1)[C@H](OC)/C=C/C=C(\C)C2 [Compound 16],9.49
21,COc1cc2cc(c1Cl)N(C)C(=O)C[C@H](OC(=O)CN(C)C(=O)c1ccc(C(C)=O)nc1)[C@]1(C)O[C@H]1[C@H](C)[C@@H]1C[C@@](O)(NC(=O)O1)[C@H](OC)/C=C/C=C(\C)C2 [Compound 26],7.73
22,COc1cc2cc(c1Cl)N(C)C(=O)C[C@H](OC(=O)CN(C)C(=O)c1ccc(C(C)=O)cc1)[C@]1(C)O[C@H]1[C@H](C)[C@@H]1C[C@@](O)(NC(=O)O1)[C@H](OC)/C=C/C=C(\C)C2 [Compound 25],8.07
23,COc1cc2cc(c1Cl)N(C)C(=O)C[C@H](OC(=O)[C@H](C)N(C)C(=O)c1ccc(C(C)=O)cc1)[C@]1(C)O[C@H]1[C@H](C)[C@@H]1C[C@@](O)(NC(=O)O1)[C@H](OC)/C=C/C=C(\C)C2 [Compound 24],8.04
24,COc1cc2cc(c1Cl)N(C)C(=O)C[C@H](OC(=O)C(C)(C)Oc1ccc(C(C)=O)cc1)[C@]1(C)O[C@H]1[C@H](C)[C@@H]1C[C@@](O)(NC(=O)O1)[C@H](OC)/C=C/C=C(\C)C2 [Compound 19],8.95
25,COc1cc2cc(c1Cl)N(C)C(=O)C[C@H](OC(=O)C1CCCN1C(=O)Nc1ccc(C(C)=O)cc1)[C@]1(C)O[C@H]1[C@H](C)[C@@H]1C[C@@](O)(NC(=O)O1)[C@H](OC)/C=C/C=C(\C)C2 (stereo partly shown) [Compound 23],7.57

# Same assay, conditions: Homo sapiens; geometric mean over the n cell lines tested, 96 h treatment, CellTiter-Blue; read-out: Geomean IC50
row,Structure (SMILES),pIC50
1,"COc1cc2cc(c1Cl)N(C)C(=O)CC(O)C1(C)OC1C(C)C1CC(O)(NC(=O)O1)C(OC)/C=C/C=C(\C)C2 (stereo not shown) [Maytansinol, reference compound]",7.07

# Experiment: Stability and release kinetics of maytansinoid-HSA conjugates in buffer solution at pH 4.0 and pH 7.4
# Assay type: physicochemical
# Conditions: maytansinoid-HSA conjugate, PBS pH 7.4, 37° C., measured at 100 μM
# Method: For preparing HSA conjugates of albumin-binding maytansinoids, HSA (200 μM: 361.8 μL, 1078 μM free Cys34; 100 μM: 180.9 μL, 1078 μM free Cys34) was diluted with PBS buffer (4 mM sodium phosphate, 150 mM NaCl, pH 7.4) (200 μM: 678.2 μL; 100 μM: 859.1 μL) and DMSO (200 μM: 130.0 μL; 100 μM: 195.0 μL) and incubated in a heating block at 37° C. for 30 minutes. The albumin-binding maytansinoid was added as a 2 mM stock solution in DMSO (200 μM: 130.0 μL; 100 μM: 65.0 μL) to the preincubated HSA sample to produce a 200 μM or 100 μM solution of maytansinoid-prodrug and 300 μM or 150 μM of free Cys34. The mixture having a pH of 7.4 was allowed to react for 10 min at 37° C. and was then analyzed hourly for 24 hours by RP-HPLC (Phenomenex Aeris WP XB-C18, 3.6 μm, 250×4.6 mm).
# For studying the release kinetics at pH 4.0 the mixture was acidified with a mixture of 50 mM sodium acetate buffer pH 3.0 (200 μM: 119.3 μL; 100 μM: 125.2 μL) and 1 M HCl (200 μM: 12.7 μL; 100 μM: 6.8 μL) to reach pH 4.0. The mixture was subsequently analyzed hourly for 24 hours by RP-HPLC (Phenomenex Aeris WP XB-C18, 3.6 μm, 250×4.6 mm).
# The following RP-HPLC conditions were used: Phenomenex Aeris WP XB-C18 3.6 μm, 250×4.6 mm; eluent A (100% 20 mM Tris buffer pH 8.0) and eluent B (90:10, MeCN: water) eluting with a gradient of eluent B (25% 0-0.5 min, 25-35% 0.5-2.5 min, 35-85% 2.5-16 min, 85-95% 16-17 min, 95% 17-20 min, 95-25% 20-25 min, 25% 25-30 min, flow rate 1.0 mL/min). Column oven temperature 37° C.; autosampler temperature 37° C.; 20 μL of injection volume.
# To quantify the percentage of free drug released, standard curves of the free maytansinoids were prepared at different concentrations (200 μM, 100 μM, 50 μM, 25 μM and 12.5 μM). The area under the curve (AUC) was determined at 250 nm.
row,Structure (SMILES),free maytansinoid after 24 h at pH 7.4 [%**]
1,COc1cc2cc(c1Cl)N(C)C(=O)C[C@H](OC(=O)COc1cccc(/C(C)=N/NC(=O)c3ccc(NC(=O)CCNC(=O)[C@H](CS(=O)(=O)O)NC(=O)CCCCCN4C(=O)C=CC4=O)cc3[N+](=O)[O-])c1)[C@]1(C)O[C@H]1[C@H](C)[C@@H]1C[C@@](O)(NC(=O)O1)[C@H](OC)/C=C/C=C(\C)C2 [Compound 42],4.8

# Same assay, conditions: maytansinoid-HSA conjugate, PBS pH 7.4, 37° C., measured at 200 μM
row,Structure (SMILES),free maytansinoid after 24 h at pH 7.4 [%*]
1,COc1cc2cc(c1Cl)N(C)C(=O)C[C@H](OC(=O)Cc1ccc(/C(C)=N/NC(=O)c3ccc(NC(=O)CCCCCN4C(=O)C=CC4=O)cc3S(=O)(=O)O)cc1)[C@]1(C)O[C@H]1[C@H](C)[C@@H]1C[C@@](O)(NC(=O)O1)[C@H](OC)/C=C/C=C(\C)C2 [Compound 32],9.5
2,COc1cc2cc(c1Cl)N(C)C(=O)C[C@H](OC(=O)CCc1ccc(/C(C)=N/NC(=O)c3ccc(NC(=O)CCCCCN4C(=O)C=CC4=O)cc3S(=O)(=O)O)cc1)[C@]1(C)O[C@H]1[C@H](C)[C@@H]1C[C@@](O)(NC(=O)O1)[C@H](OC)/C=C/C=C(\C)C2 [Compound 41],4.6
3,COc1cc2cc(c1Cl)N(C)C(=O)C[C@H](OC(=O)CSc1ccc(/C(C)=N/NC(=O)c3ccc(NC(=O)CCCCCN4C(=O)C=CC4=O)cc3S(=O)(=O)O)cc1C(F)(F)F)[C@]1(C)O[C@H]1[C@H](C)[C@@H]1C[C@@](O)(NC(=O)O1)[C@H](OC)/C=C/C=C(\C)C2 [Compound 38],4.9
4,COc1cc2cc(c1Cl)N(C)C(=O)C[C@H](OC(=O)CSc1ccc(/C(C)=N/NC(=O)c3ccc(NC(=O)CCCCCN4C(=O)C=CC4=O)cc3S(=O)(=O)O)cc1)[C@]1(C)O[C@H]1[C@H](C)[C@@H]1C[C@@](O)(NC(=O)O1)[C@H](OC)/C=C/C=C(\C)C2 [Compound 37],3.9

# Reference: US11572373B2, “Maytansinoid-based drug delivery systems” (LADRX CORPORATION, priority 2017, dated 2023)
